The source made the active and inactive calls. The rule behind the calls is not given here.
Test system: MRP1 cells, doxorubicin viability shift, 10 uM compound
Assay: viability protection against doxorubicin, MRP-1 line – cell-based, doxorubicin EC50 shift, dose response (AID 844)
Conditions: for EC50: measured here: doxorubicin EC50 with compound

Structure (SMILES) | fold increase in Dox EC50 | EC50
COc1ccc(N2C(=O)C(CC(=O)Nc3ccc(F)cc3)N(CCc3cccs3)C2=O)cc1 (configuration not stated) | 0.81 (inactive) | 4.38 µM
N#CCn1nnc(-c2ccc3c(c2)OCO3)n1 | 1.01 (inactive) | 5.43 µM
CC(=O)NN1C(=O)/C(=C\c2ccc(C)cc2)SC1=S | 1.47 (inactive) | 7.96 µM
CNc1sc(C(=O)c2cccs2)c(N)c1-c1nc2ccccc2s1 | 0.56 (inactive) | 3.03 µM
O=C(NCc1ccccn1)c1cc(-c2ccc(-c3ccccc3)cc2)nc2ccccc12 | 0.57 (inactive) | 3.1 µM
COc1ccc(/C=N/Nc2cc(C)nc(-n3nc(C)cc3C)n2)cc1 | 0.12 (inactive) | 0.656 µM
O=C(Nc1nnc(C(F)(F)F)s1)C1COc2ccccc2O1 (configuration not stated) | 0.85 (inactive) | 4.56 µM
CCCCCCC(=O)Nc1ccc(C(=O)N/N=C/c2cccnc2)cc1 | 0.13 (inactive) | 0.694 µM
Cc1ccc(NC(=O)CSc2nnc(-c3cccs3)n2Cc2ccco2)cc1 | 0.78 (inactive) | 4.24 µM
COc1cccc(/C=N/NC(=O)CNC(=O)c2ccc3c(c2)OCCO3)c1O | 0.5 (inactive) | 2.71 µM
CCOc1ccccc1N(C(=O)c1snc(C(N)=O)c1N)C(C(=O)NCCC(C)C)c1ccco1 (configuration not stated) | 0.3 (inactive) | 1.62 µM
CC(C)N(Cc1cc2ccccc2[nH]c1=O)C(=O)C(C)(C)C | 1.47 (inactive) | 7.93 µM
Cc1c(OCC(=O)OC(C)(C)C)ccc2c3c(c(=O)oc12)CCC3 | 1.04 (inactive) | 5.59 µM
O=C(Nc1cccn(Cc2c(Cl)cccc2Cl)c1=O)c1c(Cl)cccc1Cl | 1.07 (inactive) | 5.79 µM
N#Cc1nc(COc2ccc(Br)cc2)oc1N1CCCC1 | 1.26 (inactive) | 6.8 µM
Cc1ccc(C2=CC(C)(c3ccc(C)cc3)Nc3nc(C(F)(F)F)nn32)cc1 (configuration not stated) | 0.94 (inactive) | 5.1 µM
Oc1c(C(c2cccs2)N2CCN(c3cccc(Cl)c3)CC2)sc2ncnn12 (configuration not stated) | 0.68 (inactive) | 3.68 µM
CCc1nnc(NC(=O)C2CCCN2S(=O)(=O)c2ccc(F)cc2)s1 (configuration not stated) | 1.03 (inactive) | 5.54 µM
CCN(CC)S(=O)(=O)c1ccc(NN=C(C#N)C#N)cc1 | 0.68 (inactive) | 3.7 µM
CCn1c(COc2ccc(Cl)cc2)nnc1SC1CCc2ccccc2C1=O (configuration not stated) | 0.71 (inactive) | 3.81 µM
O=C(CC1SC(=O)N(Cc2ccccc2)C1=O)Nc1nccs1 (configuration not stated) | 1.82 | 9.84 µM
O=C(CSc1ncn[nH]1)N1N=C2/C(=C/c3ccco3)CCCC2C1c1ccco1 (configuration not stated) | 0.4 (inactive) | 2.17 µM
CCC1(C)Cc2c(sc3nnn(Cc4ccccc4Cl)c(=O)c23)CO1 (configuration not stated) | 0.81 (inactive) | 4.35 µM
O=C1NC(=Nc2ccccc2)SC1Cc1cccc(Cl)c1Cl (configuration not stated) | 1.21 (inactive) | 6.54 µM
CCC(Sc1nc(-c2ccccc2)c(C#N)c(=O)[nH]1)C(=O)Nc1cc(C)on1 (configuration not stated) | 1.56 | 8.41 µM
CCOC(=O)c1[nH]c2cc(OC)c(OC)cc2c1N | 0.96 (inactive) | 5.17 µM

Structure (SMILES) | fold increase in Dox EC50 | EC50
Cc1cccc(NC(=O)Cn2c(=O)n(Cc3ccco3)c(=N)c3c4c(sc32)COC(C)(C)C4)c1 | 0.81 (inactive) | 4.37 µM
O=C1CSC(=S)N1N=C1CCCCCC1 | 0.92 (inactive) | 4.99 µM
O=C1C=C(O)CC(c2ccc(Cl)cc2)C1 (configuration not stated) | 1.04 (inactive) | 5.6 µM
COC1(OC)C(=N/O)/C(=N\O)CCC1O (configuration not stated) | 0.77 (inactive) | 4.16 µM
CCCN1C(=O)/C(=N\OCC(=O)Nc2ccc(C(C)C)cc2)c2ccccc21 | 0.74 (inactive) | 3.99 µM
COc1ccc([N+](=O)[O-])cc1NC(=O)COC(=O)/C=C/c1ccco1 | 0.99 (inactive) | 5.32 µM
CCCCC1S/C(=N/N=C/c2ccc(OC)cc2)N(Cc2ccc(OC)cc2)C1=O (configuration not stated) | 1.18 (inactive) | 6.34 µM
COc1cccc(/C=N/NC(=O)C(=O)NCc2ccco2)c1O | 0.65 (inactive) | 3.54 µM
Cc1cccc(Nc2nnc(SCC(=O)Nc3cccnc3Cl)s2)c1 | 0.61 (inactive) | 3.3 µM
Cc1ccc(NC(=O)Cc2csc(-c3ccccc3)n2)cc1F | 1.22 (inactive) | 6.6 µM
O=C(CC1SC(=O)N(Cc2ccc(Cl)cc2)C1=O)Nc1nccs1 (configuration not stated) | 1.75 | 9.46 µM
CCC1(C)Cc2c(sc3nnn(CC(=O)Nc4ccc(C)cc4)c(=O)c23)CO1 (configuration not stated) | 1.07 (inactive) | 5.79 µM
Brc1ccc(CSc2ncn[nH]2)cc1 | 1 (inactive) | 5.39 µM
CC(=O)N1CCN=C1SCc1ccc(C)cc1 | 0.87 (inactive) | 4.67 µM
Cc1cccc2cc(CN(Cc3cccs3)S(=O)(=O)c3ccc4c(c3)OCCO4)c(=O)[nH]c12 | 1.47 (inactive) | 7.94 µM
O=C(COc1ccc(Br)cc1)N1CCN(C2CCCC2)CC1 | 1.08 (inactive) | 5.85 µM
Cc1ccc(NC(=O)CSc2nnc(C)n2-c2ccccc2)cc1 | 1.61 | 8.71 µM
CC1=NN(c2ccc(C)cc2C)C(=O)C1C(c1ccccc1O)C1C(=O)N(c2ccc(C)cc2C)N=C1C (configuration not stated) | 0.71 (inactive) | 3.81 µM
Cc1nc2cc(-c3ccc(Cl)cc3)nn2c(C)c1CCC(=O)NC(C)c1ccc2c(c1)OCCO2 (configuration not stated) | 0.52 (inactive) | 2.83 µM
Cc1cc(C)n(-c2nc3ccccc3nc2Nc2ccc3c(c2)OCO3)n1 | 0.75 (inactive) | 4.02 µM
Cc1ccc(OCc2nnc(SCC(=O)Nc3cccc4ccccc34)n2-c2ccccc2)cc1 | 0.33 (inactive) | 1.8 µM
CC(C)CC(=O)n1sc(NC(=O)c2ccccc2)nc1=O | 0.92 (inactive) | 4.95 µM
COc1cccc(/C=N/NC(=O)C(C)n2nc(C)c([N+](=O)[O-])c2C)c1O (configuration not stated) | 0.33 (inactive) | 1.77 µM
O=C(NNC1=C(C(=O)C(F)(F)F)CCC1)c1ccc(Cl)cc1 | 0.87 (inactive) | 4.7 µM
Cc1oc(C(=O)Nc2ccc(C(=O)O)cc2)cc1COc1ccccc1 | 0.42 (inactive) | 2.24 µM
O=C(O)CSC1c2ccccc2C(=O)N1Cc1ccccc1 (configuration not stated) | 0.82 (inactive) | 4.42 µM

Structure (SMILES) | fold increase in Dox EC50 | EC50
COc1ccc(-c2ocnc2C(=O)Nc2ccccc2N2CCCCC2)cc1 | 0.81 (inactive) | 4.37 µM
O=c1cc(CNc2ccc(Br)cc2)nc2sccn12 | 0.99 (inactive) | 5.37 µM
COc1ccc(/C=N\NC(=O)c2cc(O)c(O)c(O)c2)cc1CN1CCN(c2ccc(F)cc2)CC1 | 0.69 (inactive) | 3.74 µM
Cc1ccc(-c2noc(C3CCCN(S(=O)(=O)c4ccc5ccccc5c4)C3)n2)o1 (configuration not stated) | 1.58 | 8.55 µM
Cn1c(=O)[nH]c(=O)c2c1nc(SCC(=O)Nc1ccccc1)n2Cc1ccccc1 | 0.45 (inactive) | 2.44 µM
CC(=O)OCC(=O)[C@@]1(O)[C@H](C)C[C@H]2[C@@H]3CCC4=CC(=O)C=C[C@]4(C)[C@@]3(F)[C@@H](O)C[C@@]21C | 1 (inactive) | 5.42 µM
Cn1nccc1CNC(=O)c1ccnn1C | 0.66 (inactive) | 3.56 µM
COc1cc(C)ccc1N(CCCN1C(=O)c2cccc3cccc(c23)C1=O)C(=O)c1cccs1 | 1.13 (inactive) | 6.12 µM
COC(=O)C(CC(C)C)NC(=O)CSc1nc(-c2ccccc2)c(C#N)c(=O)[nH]1 (configuration not stated) | 1.85 | 10 µM
CN(Cc1ccccc1)c1ncnc2c1cnn2-c1ccccc1 | 0.54 (inactive) | 2.94 µM
Cc1nc(=O)c(-c2ccccc2)c(C)n1-c1ccc(S(N)(=O)=O)cc1 | 1.53 | 8.25 µM
Cn1c(=O)n(C/C=C/c2ccccc2)c(=O)c2c1nc1n2CCCN1c1ccc(F)cc1 | 0.76 (inactive) | 4.12 µM
COc1ccc(CCNC(=O)CSCc2ccc(Cl)cc2)cc1OC | 0.67 (inactive) | 3.59 µM
Cc1cc(C)n(CCC(=O)N/N=C/c2ccccc2O)n1 | 0.28 (inactive) | 1.54 µM
S=C(c1ccc(-c2ccccc2Cl)o1)N1CCCCC1 | 0.85 (inactive) | 4.59 µM
O=C(c1cnn2c(C(F)(F)F)cc(-c3cccs3)nc12)N1CCN(C(c2ccccc2)c2ccccc2)CC1 | 0.17 (inactive) | 0.916 µM
COc1ccc(N2C(=O)CC(N3CCC(n4c(=O)[nH]c5ccccc54)CC3)C2=O)cc1 (configuration not stated) | 1.04 (inactive) | 5.64 µM
O=C(CSCc1ccc(Cl)cc1)NCC1CCCO1 (configuration not stated) | 1.1 (inactive) | 5.96 µM
O=C(Nc1ccc(N2CCCCC2)c(Cl)c1)c1ncn[nH]1 | 0.78 (inactive) | 4.22 µM
COc1ccc(C(=O)NCc2ccccc2)cc1S(=O)(=O)N1CCCc2ccccc21 | 0.56 (inactive) | 3.02 µM
CC(=O)Nc1nc(C)c(Oc2ccc(Cl)cc2Cl)c(=O)[nH]1 | 0.74 (inactive) | 4.01 µM
O=C(Cc1ccccc1F)Nc1cccc2cccnc12 | 1.68 | 9.04 µM
CCOC(=S)NC(=O)c1sc2ccccc2c1Cl | 1.32 (inactive) | 7.13 µM
O=C(NC(=S)Nc1ccccn1)c1cc(-c2ccccc2)nc2ccccc12 | 0.91 (inactive) | 4.93 µM

From PubChem BioAssay AID844 (SRMLSC, 2007)
